According to patent US8455649B2, “Insecticidal substituted azinyl derivatives” (Dow AgroSciences, LLC, priority 2007, dated 2013):
Where two headings read alike, the source gives them in different places.

Experiments:
[1] = test system: Corn Earworm (Helicoverpa zea); test: Insecticidal diet-surface test for corn earworm; assay type: in vivo; conditions: 120 h, read-out: HELIZE AVG % Mortality (50 μg/cm^2)
Procedure: (§1) The compounds identified in Table 1 were tested against beet armyworm and corn earworm as follows:
(§2) Insecticidal Test for Corn Earworm (Helicoverpa zea) and Beet Armyworm (Spodoptera exigua).
(§3) To prepare test solution, the test compound was formulated at 2000 ppm solution as 4 mg/2 mL of 9 acetone:1 tap water. 50 μL of the 2000 ppm (equivalent to 50 μg/cm^2 dose on diet surface area) test solution was pipetted upon the surface of 1 mL of lepidopteran diet (Southland Multi-Species Lepidopteran Diet) contained in each of eight wells per insect species (one well=1 replication). A second-instar corn earworm and beet armyworm was placed upon the treated diet in each well once the solvent had air-dried. Trays containing the treated diet and larvae were covered and then held in a growth chamber at 25° C., 50-55% RH, and 16 hr light:8 hr dark for 5 days. Observation were conducted 5 days after treatment and infestation. The number of dead insects of 8 per species per treatment was then determined and the results are given in Table 2 as a percent control at a dose of […].

[2] = test system: Beet Armyworm (Spodoptera exigua); test: Insecticidal diet-surface test for beet armyworm; assay type: in vivo; conditions: 120 h, read-out: LAPHEG AVG % Mortality (50 μg/cm^2)
Procedure: as §1, §2, §3

[3] = second-instar larvae on treated diet, 50 μg/cm^2 on diet surface, 5 days after treatment, 8 insects per treatment

Structure (SMILES) | mortality at 50 µg/cm2 [1, 3] | mortality at 50 µg/cm2 [2, 3] | mortality at 50 µg/cm2 [1] | mortality at 50 µg/cm2 [2]
O=C(Nc1ccc(OC(F)(F)F)cc1)Nc1cc(C(F)(F)F)cc(OCC(F)(F)F)n1 [Compound 163] | 100% | 100% | – | –
CCOc1cc(OCC(F)(F)F)nc(NC(=O)N(C)c2ccc(Br)cc2)n1 [Compound 103, N-(4-bromophenyl)-N′-[4-ethoxy-6-(2,2,2-trifluoroethoxy)-pyrimidin-2-yl]-N-methylurea] | 100% | 25% | – | –
CCN(C(=O)Nc1nc(OCC(F)(F)F)cc(OCC(F)(F)F)n1)c1ccc(Br)cc1 [Compound 40] | 100% | 100% | – | –
N#CCN(C(=O)Nc1nc(OCC(F)(F)F)cc(OCC(F)(F)F)n1)c1ccc(OC(F)(F)F)cc1 [Compound 77] | 100% | 100% | – | –
O=C(Nc1ccc([N+](=O)[O-])cc1)Nc1nc(OCC(F)(F)F)cc(OCC(F)(F)F)n1 [Compound 56] | 100% | 0% | – | –
CN(C(=O)Nc1nc(OCC(F)(F)F)cc(OCC(F)(F)F)n1)c1ccc(C#N)c(Cl)c1 [Compound 92] | – | – | 100% | 100%
CN(C(=O)Nc1nc(OCC(F)(F)F)cc(OCC(F)(F)F)c1F)c1ccc(OC(F)(F)F)cc1 [Compound 185] | 100% | 100% | – | –
CN(C(=O)Nc1nc(OCC(F)(F)F)cc(OCC(F)(F)F)n1)c1ccc(F)cc1 [Compound 86] | 100% | 100% | – | –
Cc1c(OCC(F)(F)F)nc(NC(=O)Nc2ccc(C(F)(F)F)cc2)nc1OCC(F)(F)F [Compound 147] | 100% | 88% | – | –
CN(C(=O)Nc1nc(OCC(F)(F)F)cc(OCC(F)(F)F)n1)c1ccc(C#N)cc1 [Compound 83] | 100% | 100% | – | –
N#Cc1ccc(NC(=O)Nc2nc(OCC(F)(F)F)cc(OCC(F)(F)F)n2)cc1 [Compound 4] | 100% | 0% | – | –
O=C(Nc1cc(OCC(F)(F)F)nc(OCC(F)(F)F)n1)N(CCF)c1ccc(OC(F)(F)F)cc1 [Compound 114] | 100% | 100% | – | –
CN(C(=O)Nc1nc(OCC(F)(F)F)cc(OCC(F)(F)F)n1)c1ccc([N+](=O)[O-])cc1 [Compound 79] | 100% | 100% | – | –
CN(C(=O)Nc1nc(OCC(F)(F)F)cc(OCC(F)(F)F)n1)c1ccc(I)cn1 [Compound 126] | 100% | 100% | – | –
CN(C(=O)Nc1nc(OCC(F)(F)F)cc(OCC(F)(F)F)n1)c1ccc(Cl)c(Cl)c1 [Compound 85] | 100% | 100% | – | –
O=C(Nc1ccc(S(=O)(=O)C(F)(F)F)cc1)Nc1nc(OCC(F)(F)F)cc(OCC(F)(F)F)n1 [Compound 59] | 100% | 0% | – | –
CCN(C(=O)Nc1nc(OCC(F)(F)F)cc(OCC(F)(F)F)n1)c1ccc(OC(F)(F)F)cc1 [Compound 27] | 100% | 100% | – | –
CN(C(=O)Nc1nc(OCC(F)(F)F)cc(OCC(F)(F)F)n1)c1ccc(Br)cc1 [Compound 41, N′-[4,6-bis(2,2,2-trifluoroethoxy)pyrimidin-2-yl]-N-methyl-N-(4-bromophenyl)urea] | 100% | 100% | – | –
O=C(Nc1ccc(Cl)nc1)Nc1nc(OCC(F)(F)F)cc(OCC(F)(F)F)n1 [Compound 49] | 100% | 100% | – | –
CCOCN(C(=O)N(COCc1ccccc1)c1nc(OCC(F)(F)F)cc(OCC(F)(F)F)n1)c1ccc(C(F)(F)F)cc1 [Compound 33, N-Benzyloxymethyl-N-[4,6-bis(2,2,2-trifluoroethoxy)pyrimidin-2-yl]-N′-ethoxymethyl-N′-[4-(trifluoromethyl)phenyl]urea] | 100% | 100% | – | –
O=C(Nc1ccc(C(F)(F)F)cc1)Nc1nc(OCC(F)(F)C(F)F)cc(OCC(F)(F)C(F)F)n1 [Compound 175] | 100% | 100% | – | –
